The values that follow come from patent US20040137022A1, “Manganese compositions for treating skin vascular tissue and combating skin pallor” (SOCIETE L'OREAL S.A., priority 2000, published 2004).

For this test, the system named is endothelium-free isolated blood vessels. The settings on record: concentration 10^−6 M; blood vessel rings contracted with noradrenalin 3×10^−7 M; 37° C. As for the experimental part:
Activity of manganese (manganese gluconate, manganese chloride and manganese carbonate) in an ex vivo model of endothelium-free isolated blood vessels:
Blood vessel rings (or sections) were maintained in a 20 ml tank filled with survival fluid (Krebs Henseleit liquid) maintained at a temperature of 37° C. and oxygenated with a mixture of 95% oxygen and 5% CO2.
The variations in the tension of the blood vessel were then recorded with an initial preloading of several […].
The rings were contracted with noradrenalin at a concentration of 3×10^−7 M. On each preparation, the effect of the test products was evaluated at increasing and cumulative concentrations of from 3×10^−8 M to 10^−5 M.
Regarding manganese gluconate, the “% of relaxation” value was found to be 100%.

For the substance manganese chloride [MnCl2], the “% of relaxation” value came to 100%.

Take manganese carbonate [MnCO3]: the “% of relaxation” value stood at 100%.
